Assay results as given in patent publication US10865216B2, “Tricyclic Gyrase inhibitors” (MERCK SHARP & DOHME CORP., priority 2012, dated 2020).
Converted amounts (≈) assume the structure as drawn.

Tests used:
[1] = tested on: S. aureus ATCC 13709; assay: MIC, S. aureus ATCC 13709; assay type: cell-based; details: for MIC: Staphylococcus aureus, ATCC13709, S. aureus, read-out: MIC Sa
[2] = tested on: E. coli ATCC 25922; assay: MIC, E. coli ATCC 25922; assay type: cell-based; details: for MIC: Escherichia coli, ATCC25922, E. coli, read-out: MIC Ec
[3] = S. aureus, Alamar Blue read after overnight incubation at 35° C.
[4] = E. coli, Alamar Blue read after overnight incubation at 35° C.
[5] = Alamar Blue read after overnight incubation at 35° C.

CNc1cc(F)cc2c1[nH]c1nc(Oc3cnc(-c4nn[nH]n4)nc3)nc(N3CC[C@@H](N)C3)c12 [Compound 4.224]
MIC Sa [1, 3]: 1 µg/mL (≈ 2.16 µM) | MIC Ec [2, 4]: >16 µg/mL

CNc1cc(F)cc2c1[nH]c1nc(Oc3cnc(N4CCOCC4)nc3)nc(N3CC(N)C4(CC4)C3)c12 (stereo not shown) [Compound 4.213]
MIC Sa [1, 3]: ≤0.5 µg/mL | MIC Ec [2, 4]: 1 µg/mL (≈ 1.98 µM)

CNc1cc(F)cc2c1[nH]c1nc(Oc3cnc4c(F)cnn4c3)nc(N3C[C@H]4C[C@@H]3C[C@H]4N)c12 [Compound 10.35]
MIC Sa ([1]; Table 18, Sa): ≤ 0.5 µg/mL | MIC Ec ([2]; Table 18, Ec): ≤ 0.5 µg/mL

CNc1cc(F)cc2c1[nH]c1nc(Oc3cnc(C)nc3)nc(N3CC4CCNC4(C)C3)c12 (stereo not shown) [Compound 4.116]
MIC Sa [1, 3]: ≤0.5 µg/mL | MIC Ec [2, 4]: ≤0.5 µg/mL

CNc1ncnc2c1[nH]c1nc(Oc3cncc(F)c3)nc(N3CC4C(N)C4C3)c12 (stereo not shown) [Compound 7.04]
MIC [1, 5]: 8 µg/mL (≈ 19.6 µM) | MIC [2, 5]: 32 µg/mL (≈ 78.5 µM)

CNc1cccc2c1[nH]c1nc(Oc3ccc(C(=O)OC)nc3)cc(N3CC4C(N)C4C3)c12 (stereo not shown) [Compound 3.21]
MIC [1, 5]: ≤ 0.5 µg/mL | MIC [2, 5]: 1 µg/mL (≈ 2.25 µM)

CNc1cc(F)cc2c1[nH]c1nc(Oc3cnc(SC)nc3)nc(N3CCC4(CC4N)C3)c12 (stereo not shown) [Compound 4.195]
MIC Sa [1, 3]: ≤0.5 µg/mL | MIC Ec [2, 4]: 1 µg/mL (≈ 2.14 µM)

CCc1cc(F)cc2c1[nH]c1nc(Oc3cnc(C)nc3)nc(N3C[C@H]4C[C@@H]3C[C@H]4N)c12 [Compound 10.89]
MIC Sa ([1]; Table 18, Sa): ≤ 0.5 µg/mL | MIC Ec ([2]; Table 18, Ec): 2 µg/mL (≈ 4.61 µM)

CNc1cc(F)cc2c1[nH]c1nc(Oc3cnc(N(C)C)nc3)nc(N3CC[C@@H](N)C3)c12 [Compound 4.207]
MIC Sa [1, 3]: ≤0.5 µg/mL | MIC Ec [2, 4]: ≤0.5 µg/mL

CCOC(=O)c1csc(Nc2nc(N3C[C@H]4CC3C[C@H]4N)c3c(n2)[nH]c2c(NC)cc(F)cc23)n1
SA MIC ([1]; Table 13, L = NH): ≤ 0.5 µg/mL | EC MIC ([2]; Table 13, L = NH): 1 µg/mL

CNc1cc(F)cc2c1[nH]c1nc(Oc3cnc([C@@H](C)O)nc3)nc(N3CC4(CC[C@H]4N)C3)c12 [Compound 10.59]
MIC Sa ([1]; Table 18, Sa): ≤ 0.5 µg/mL | MIC Ec ([2]; Table 18, Ec): ≤ 0.5 µg/mL

CNc1cc(F)cc2c1[nH]c1nc(Oc3cnc(C(C)C)nc3)nc(N3CC4CC(N)C4C3)c12 (stereo not shown) [Compound 4.234]
MIC Sa [1, 3]: ≤0.5 µg/mL | MIC Ec [2, 4]: 1 µg/mL (≈ 2.16 µM)

CNc1cccc2c1[nH]c1nc(Oc3cncnc3)cc(N3CCC(N)CC3)c12 [Compound 3.64]
MIC [1, 5]: 16 µg/mL (≈ 41.1 µM) | MIC [2, 5]: 64 µg/mL (≈ 164 µM)

CNc1cc(F)cc2c1[nH]c1nc(Oc3cnc4c(c3)C(=O)N(C)C4O)nc(N3C[C@H]4C[C@@H]3C[C@H]4N)c12 (stereo partly shown) [Compound 10.108]
MIC Sa ([1]; Table 18, Sa): ≤ 0.5 µg/mL | MIC Ec ([2]; Table 18, Ec): > 16 µg/mL

COc1cccc2c1[nH]c1nc(Oc3cnc4cccnc4c3)nc(N3CC4C(N)C4C3)c12 (stereo not shown) [Compound 2.14]
MIC Sa [1, 3]: 1 µg/mL (≈ 2.28 µM) | MIC Ec [2, 4]: >64 µg/mL

CNc1cccc2c1[nH]c1nc(Oc3ccc(C(=O)O)nc3)cc(N3CC4C(N)C4C3)c12 (stereo not shown) [Compound 3.22]
MIC [1, 5]: 16 µg/mL (≈ 37.2 µM) | MIC [2, 5]: 64 µg/mL (≈ 149 µM)

Cc1cc(F)cc2c1[nH]c1nc(Oc3cncnc3)nc(N3CC4C(N)C4C3)c12 (stereo not shown) [Compound 2.7]
MIC Sa [1, 3]: 4 µg/mL (≈ 10.2 µM) | MIC Ec [2, 4]: >16 µg/mL

CNc1cc(F)cc2c1[nH]c1nc(Oc3cnc(C)nc3)nc(N3C[C@H]4C[C@@H]3C[C@H]4NCCO)c12 [Compound 10.114]
MIC Sa ([1]; Table 18, Sa): ≤ 0.5 µg/mL | MIC Ec ([2]; Table 18, Ec): ≤ 0.5 µg/mL

CNc1cccc2c1[nH]c1nc(Oc3cncnc3)cc(N3CCN(CCN)CC3)c12 [Compound 3.56]
MIC [1, 5]: > 64 µg/mL | MIC [2, 5]: > 64 µg/mL

CCc1ncc(Oc2nc(N3CCC4(CC4N)C3)c3c(n2)[nH]c2c(NC)cc(F)cc23)cn1 (stereo not shown) [Compound 4.263]
MIC Sa [1, 3]: ≤0.5 µg/mL | MIC Ec [2, 4]: ≤0.5 µg/mL

CNc1cccc2c1[nH]c1nc(Sc3cnc4ccc[n+]([O-])c4c3)nc(N3CC(CN)C3)c12 [Compound 1.20]
MIC [1, 5]: 4 µg/mL (≈ 8.72 µM) | MIC [2, 5]: 16 µg/mL (≈ 34.9 µM)

CNc1cc(F)c(F)c2c1[nH]c1nc(Oc3cnc(C(C)C#N)nc3)nc(N3C[C@H]4C[C@@H]3C[C@H]4N)c12 (stereo partly shown) [Compound 10.95]
MIC Sa ([1]; Table 18, Sa): ≤ 0.5 µg/mL | MIC Ec ([2]; Table 18, Ec): ≤ 0.5 µg/mL

CNc1cc(F)c(F)c2c1[nH]c1nc(Oc3cncnc3)nc(N3CC4C(N)C4C3)c12 (stereo not shown) [Compound 6.19]
MIC Sa [1, 3]: >16 µg/mL | MIC Ec [2, 4]: >16 µg/mL
